How the values were obtained:
Assay type in all cases: in vivo
[1] = test system: upland rice (Oryza sp., var. Tebonnet, RICE); test: Pre-emerge test, crop safety; details: pre-emerge, 14 days after application, scale 0-100
Excerpt: (§1) A standard greenhouse herbicide activity screening system was used to evaluate the herbicidal efficacy and crop safety of these test compounds. Seven broadleaf weed species including redroot pigweed (Amaranthus retroflexus, AMARE, velvetleaf (Abutilon theophrasti, ABUTH), sicklepod (Cassia obtusifolia, CASOB), ivyleaf morningglory (Ipomoea hederacea, IPOHE), lambsquarters (Chenopodium album, CHEAL), common ragweed (Ambrosia artemisizfolia L., AMBEL), and cocklebur (Xanthium strumarium, XANST) were used as test species. Four grass weed species including green foxtail (Setaria viridis, SETVI), barnyardgrass (Echinochloa crus-galli, ECHCG), johnsongrass (Sorghum halepense, SORHA), and large crabgrass (Digitaria sanguinalis, DIGSA) were also used. In addition, three crop species, field corn (Zea mays L., var. Dekalb 535, CORN), soybean (Glycine max L., var. Pella 86, SOY), and is upland rice (Oryza sp., var. Tebonnet, RICE) were included.
(§2) All plants were grown in 10 cm square plastic pots which were filled with a sandy loam soil mix. For pre-emerge tests, seeds were planted one day prior to application of the test compounds. For post-emerge tests, seeds were planted 8-21 days prior to the test to allow emergence and good foliage development prior to application of the test substances. At the time of the post-emerge application, plants of all species were usually at the 2-3 leaf stage of development.
(§3) All test compounds Were dissolved in acetone and applied to the test units in a volume of 187 l /ha. Test materials were applied at rates ranging from 15 g ai/ha to 1000 g ai/ha using a track sprayer equipped with a TJ8001E even flow flat fan spray nozzle. Plants were arranged on a shelf so that the top of the canopy (post-emerge) or top of the soil surface (pre-emerge) was 40-45 cm below the nozzle. Pressurized air was used to force the test solution through the nozzle as it was mechanically advanced (via electrically driven chain drive) over the top of all test plants/pots. This application simulates a typical commercial field herbicide application.
(§4) In the post-emerge test, a commercial non-ionic surfactant was also included (0.25% v/v) to enhance wetting of the leaf surfaces of target plants. Immediately after application, test units of the pre-emerge applications were watered at the soil surface to incorporate the test materials. Subsequently, these test units were bottom-watered. Post-emerge test units were always bottom-watered.
(§5) At 14 days after application of the test materials, phytotoxicity ratings were recorded. A rating scale of 0-100 was used as previously described in Research Methods in Weed Science, 2nd edition, B. Truelove, Ed., Southern Weed Science Society, Auburn University, Auburn, Ala. 1977. Briefly, “0” corresponds to no damage and “100” corresponds to complete death of all plants in the test unit. This scale was used both to determine efficacy against weed species and damage to crop species. Herbicide activity data for various compounds of this invention, which are shown by compound No. in Tables 1-8, are shown in Tables 11 and 12.

[2] = test system: field corn (Zea mays L., var. Dekalb 535, CORN); test: Pre-emerge test, crop safety; details: pre-emerge, 14 days after application, scale 0-100
Excerpt: as §1, §2, §3, §4, §5

[3] = test system: barnyardgrass (Echinochloa crus-galli, ECHCG); test: Pre-emerge test, greenhouse herbicide activity screening; details: pre-emerge, 14 days after application, scale 0-100
Excerpt: as §1, §2, §3, §4, §5

[4] = test system: velvetleaf (Abutilon theophrasti, ABUTH); test: as above; details: pre-emerge, 14 days after application, scale 0-100
Excerpt: as §1, §2, §3, §4, §5

[5] = test system: sicklepod (Cassia obtusifolia, CASOB); test: as above; details: pre-emerge, 14 days after application, scale 0-100
Excerpt: as §1, §2, §3, §4, §5

[6] = test system: green foxtail (Setaria viridis, SETVI); test: as above; details: pre-emerge, 14 days after application, scale 0-100
Excerpt: as §1, §2, §3, §4, §5

[7] = test system: lambsquarters (Chenopodium album, CHEAL); test: as above; details: pre-emerge, 14 days after application, scale 0-100
Excerpt: as §1, §2, §3, §4, §5

[8] = test system: large crabgrass (Digitaria sanguinalis, DIGSA); test: as above; details: pre-emerge, 14 days after application, scale 0-100
Excerpt: as §1, §2, §3, §4, §5

[9] = test system: ivyleaf morningglory (Ipomoea hederacea, IPOHE); test: as above; details: pre-emerge, 14 days after application, scale 0-100
Excerpt: as §1, §2, §3, §4, §5

[10] = test system: upland rice (Oryza sp., var. Tebonnet, RICE); test: Post-emerge test, crop safety; details: post-emerge, 14 days after application, rating scale 0-100
Excerpt: as §1, §2, §3, §4, §5

[11] = test system: field corn (Zea mays L., var. Dekalb 535, CORN); test: Post-emerge test, crop safety; details: post-emerge, 14 days after application, rating scale 0-100
Excerpt: as §1, §2, §3, §4, §5

[12] = test system: barnyardgrass (Echinochloa crus-galli, ECHCG); test: Post-emerge test, greenhouse herbicide activity screening; details: post-emerge, 14 days after application, rating scale 0-100
Excerpt: as §1, §2, §3, §4, §5

[13] = test system: redroot pigweed (Amaranthus retroflexus, AMARE); test: as above; details: post-emerge, 14 days after application, rating scale 0-100
Excerpt: as §1, §2, §3, §4, §5

[14] = test system: velvetleaf (Abutilon theophrasti, ABUTH); test: as above; details: post-emerge, 14 days after application, rating scale 0-100
Excerpt: as §1, §2, §3, §4, §5

[15] = test system: sicklepod (Cassia obtusifolia, CASOB); test: as above; details: post-emerge, 14 days after application, rating scale 0-100
Excerpt: as §1, §2, §3, §4, §5

[16] = test system: green foxtail (Setaria viridis, SETVI); test: as above; details: post-emerge, 14 days after application, rating scale 0-100
Excerpt: as §1, §2, §3, §4, §5

[17] = test system: lambsquarters (Chenopodium album, CHEAL); test: as above; details: post-emerge, 14 days after application, rating scale 0-100
Excerpt: as §1, §2, §3, §4, §5

[18] = test system: large crabgrass (Digitaria sanguinalis, DIGSA); test: as above; details: post-emerge, 14 days after application, rating scale 0-100
Excerpt: as §1, §2, §3, §4, §5

[19] = test system: ivyleaf morningglory (Ipomoea hederacea, IPOHE); test: as above; details: post-emerge, 14 days after application, rating scale 0-100
Excerpt: as §1, §2, §3, §4, §5

[20] = test system: redroot pigweed (Amaranthus retroflexus, AMARE); test: Pre-emerge test, greenhouse herbicide activity screening; details: pre-emerge, 14 days after application, scale 0-100
Excerpt: as §1, §2
All test compounds Were dissolved in acetone and applied to the test units in a volume of 187 l /ha. […] Plants were arranged on a shelf so that the top of the canopy (post-emerge) or top of the soil surface (pre-emerge) was 40-45 cm below the nozzle. Pressurized air was used to force the test solution through the nozzle as it was mechanically advanced (via electrically driven chain drive) over the top of all test plants/pots. This application simulates a typical commercial field herbicide application.
as §4, §5

COc1c(Cl)cc(F)c(-n2c(=O)cc(C(F)(F)F)n(C)c2=O)c1NC(=O)CCc1ccccc1C [2-129]
phytotoxicity rating RICE (crop damage) ([1]; 63 g ai/ha): 40
phytotoxicity rating RICE (crop damage) ([1]; 250 g ai/ha): 80
phytotoxicity rating CORN (crop damage) ([2]; 63 g ai/ha): 50
phytotoxicity rating CORN (crop damage) ([2]; 250 g ai/ha): 90
phytotoxicity rating ECHCG ([3]; 63 g ai/ha): 30
phytotoxicity rating ECHCG ([3]; 250 g ai/ha): 80
phytotoxicity rating ABUTH ([4]; 63 g ai/ha): 100
phytotoxicity rating ABUTH ([4]; 250 g ai/ha): 100
phytotoxicity rating CASOB ([5]; 63 g ai/ha): 60
phytotoxicity rating CASOB ([5]; 250 g ai/ha): 90
phytotoxicity rating SETVI ([6]; 63 g ai/ha): 90
phytotoxicity rating SETVI ([6]; 250 g ai/ha): 100
phytotoxicity rating CHEAL ([7]; 63 g ai/ha): 100
phytotoxicity rating CHEAL ([7]; 250 g ai/ha): 100
phytotoxicity rating DIGSA ([8]; 63 g ai/ha): 60
phytotoxicity rating DIGSA ([8]; 250 g ai/ha): 100
phytotoxicity rating IPOHE ([9]; 63 g ai/ha): 50
phytotoxicity rating IPOHE ([9]; 250 g ai/ha): 70
RICE phytotoxicity rating (crop damage) ([10]; 63 g ai/ha): 35
RICE phytotoxicity rating (crop damage) ([10]; 250 g ai/ha): 75
CORN phytotoxicity rating (crop damage) ([11]; 63 g ai/ha): 70
CORN phytotoxicity rating (crop damage) ([11]; 250 g ai/ha): 100
ECHCG phytotoxicity rating ([12]; 63 g ai/ha): 30
ECHCG phytotoxicity rating ([12]; 250 g ai/ha): 50
AMARE phytotoxicity rating ([13]; 63 g ai/ha): 100
AMARE phytotoxicity rating ([13]; 250 g ai/ha): 100
ABUTH phytotoxicity rating ([14]; 63 g ai/ha): 100
ABUTH phytotoxicity rating ([14]; 250 g ai/ha): 100
CASOB phytotoxicity rating ([15]; 63 g ai/ha): 80
CASOB phytotoxicity rating ([15]; 250 g ai/ha): 100
SETVI phytotoxicity rating ([16]; 63 g ai/ha): 80
SETVI phytotoxicity rating ([16]; 250 g ai/ha): 90
CHEAL phytotoxicity rating ([17]; 63 g ai/ha): 100
CHEAL phytotoxicity rating ([17]; 250 g ai/ha): 100
DIGSA phytotoxicity rating ([18]; 63 g ai/ha): 30
DIGSA phytotoxicity rating ([18]; 250 g ai/ha): 70
IPOHE phytotoxicity rating ([19]; 63 g ai/ha): 100
IPOHE phytotoxicity rating ([19]; 250 g ai/ha): 100
phytotoxicity rating AMARE ([20]; 63 g ai/ha): 90
phytotoxicity rating AMARE ([20]; 250 g ai/ha): 100
